Measurements from US20250074912A1, “IMPROVED PROCESS FOR THE PREPARATION OF UPADACITINIB” (MSN LABORATORIES PRIVATE LIMITED, R&D CENTER, priority 2022, published 2025).

Experiment: Storage stability of amorphous Upadacitinib
Type: physicochemical

stability on storage (12 months at 25° C./60+5% relative humidity): stable | stability on storage (12 months at 40±2° C./75±5% relative humidity): stable
SMILES: CC[C@@H]1CN(C(=O)NCC(F)(F)F)C[C@@H]1c1cnc2cnc3[nH]ccc3n12 [Amorphous form of Upadacitinib, (3S,4R)-3-ethyl-4-(3H-imidazo[1,2-a]pyrrolo[2,3-e]pyrazin-8-yl)-N-(2,2,2-trifluoroethyl)pyrrolidine-1-carboxamide]
